The values below come from publication PMC8113459, “Selective inhibition of cullin 3 neddylation through covalent targeting DCN1 protects mice from acetaminophen-induced liver toxicity” (Nature Communications, 2021).

Data set [1] has as its target T1, DCN1 (Homo sapiens, UniProt Q96GG9). As to the kind of experiment: Intact-protein mass spectrometric analysis of covalent complex formation, Method A. Format: binding. The note with it: for Percentage of the formation of covalent complex with DCN1 protein: 37 °C. The text has this:
MassHunter Qualitative Analysis software (Agilent) was used to analyze the data. Intact protein masses were obtained using the maximum entropy deconvolution algorithm. The mass spectrometry data in Supplementary Figs. 1–11 were generated by Method A.
Target sequence in this assay (Q96GG9 58-259 limits assumed): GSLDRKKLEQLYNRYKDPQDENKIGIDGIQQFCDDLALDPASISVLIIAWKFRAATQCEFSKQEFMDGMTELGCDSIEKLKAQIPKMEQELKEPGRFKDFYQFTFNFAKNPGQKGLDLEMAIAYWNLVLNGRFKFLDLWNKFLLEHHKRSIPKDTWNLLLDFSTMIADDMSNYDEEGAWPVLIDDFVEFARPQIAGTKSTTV

The target in data set [2] is T1, DCN1. As to the kind of experiment: Cocrystal structures of lyso-DCN1-inhibitor complexes. Set-up: to DCN1 residues 62–251; His6 (N); TEV cleavage site (N); lysozyme residues 1–164 with C54T, C97A, A146T, D127A, R154A (fusion partner, N-terminal of DCN1); made in house; host or cells: Rosetta 2 cells (E. coli). How it is done: Lysozyme–DCN1 gene was synthesized fusing lysozyme residues 1–164, containing mutations (C54T, C97A, A146T, D127A, and R154A), to DCN1 residues 62–251. Ligation independent cloning was utilized to clone the fused gene into an N-terminal His6–TEV expression vector. The clone was transformed into Rosetta 2 cells, grown in terrific broth at 37 °C, and expressed overnight with 0.4 mM isopropyl β-D-1-thiogalactopyranoside at 20 °C. Pelleted cells were freeze-thawed and lysed in 25 mM HEPES, pH 7.5, 150 mM NaCl, 0.1% β-mercaptoethanol and protease inhibitors. Cellular debris was removed via centrifugation. The supernatant was loaded onto a Ni-NTA (Qiagen) column at 4 °C. The column was washed with 25 mM HEPES, pH 7.5, 150 mM NaCl, and 20 mM imidazole, then protein eluted with buffer containing 300 mM imidazole. The eluate was applied to a Superdex 200 (GE Healthcare) equilibrated with 25 mM HEPES, pH 7.5, 200 mM NaCl, and 1 mM DTT. The protein was judged to be greater than 95% pure by SDS-PAGE, concentrated to 3.5 mg/mL and stored at −80 °C. Yield was 450 mg/L of expressed media.
Lyso–DCN1 protein was thawed and concentrated to 9.9 mg/mL in 25 mM HEPES, pH 7.5, 200 mM NaCl, and 1 mM DTT. Each compound was incubated with protein in a 1:1.2 protein to compound molar ratio overnight at 4 °C, then spun and setup in sitting drop vapor diffusion experiments. Crystallization drops contained 2 µL of protein–inhibitor solution and 1 µL of well solution. Crystals grew at 20 °C with well solution containing 28–33% PEG 3350 and 200 mM ammonium formate. Crystals were cryoprotected in 25 mM HEPES, pH 7.5, 200 mM NaCl, 30% PEG 3350, and 1 mM DTT.
Diffraction data were collected at a wavelength of 0.9786 Å on the APS LS-CAT 21-ID-G beamline at Argonne National Laboratory. Data were processed using HKL2000[44] and solved via molecular replacement using molrep[45] with two independent search models (lysozyme and DCN1) from PDB ID 5V83. The structures were iteratively fit and refined using Coot[46] and Buster[47]. […]
Target sequence in this assay (Q96GG9 62-251): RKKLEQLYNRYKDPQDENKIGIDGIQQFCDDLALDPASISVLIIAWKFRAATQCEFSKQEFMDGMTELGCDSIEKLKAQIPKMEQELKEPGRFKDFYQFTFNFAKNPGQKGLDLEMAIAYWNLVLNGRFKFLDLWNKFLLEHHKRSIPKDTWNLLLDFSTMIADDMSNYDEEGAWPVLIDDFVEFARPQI

Another data set is described as follows: Solubility. Format: physicochemical.
Setting [3] is: 10 min incubation, 1.2-fold excess inhibitor.

In the case of `CCC(=O)N[C@@H](Cc1nc2ccc(C(C)C)cc2s1)C(=O)N[C@H](CNC(=O)/C=C/CN1CCOCC1)C1CCCCC1` [compound 4], the “covalent complex formation / reaction kinetics with DCN1 protein (in words)” value at DCN1 [1] is given as “slower reaction kinetics than 3 or 5”. The “Percentage of the formation of covalent complex with DCN1 protein” value (“Percentage” for short) at DCN1 [1] (setting [3]) and at DCN1 [1] (60 min (1 h) incubation) was 0% throughout. Moreover, at DCN1 [2], the “covalent bond to Cys115 of DCN1 in the cocrystal structure” value is “no covalent bond formed”.
As to `CCC(=O)N[C@@H](Cc1nc2ccc(C(C)C)cc2s1)C(=O)N[C@H](CNC(=O)CCl)C1CCCCC1` [compound 2], the “covalent complex formation / reaction kinetics with DCN1 protein (in words)” value at DCN1 [1] is recorded as “slow reaction kinetics”. For the same molecule, the “Percentage” value at DCN1 [1] (setting [3]) amounted to 0%; on DCN1 [1] (180 min (3 h) incubation), 15%; on DCN1 [1] (720 min (12 h) incubation), 70%. In “Solubility”, the solubility entry was “poor solubility”.
Consider `C=CC(=O)NC[C@@H](NC(=O)[C@H](Cc1nc2ccc(C(C)C)cc2s1)NC(=O)CC)C1CCCCC1` [compound 3], for which, on DCN1 [1], the “covalent complex formation / reaction kinetics with DCN1 protein (in words)” value is on record as “slow reaction kinetics”. The “Percentage” value on DCN1 [1] (setting [3]) amounted to 0%; at DCN1 [1] (720 min (12 h) incubation), 40%. Besides, the solubility entry in “Solubility” is “poor solubility”.
